Reference: patent US10729133B2, “Cornfield herbicidal composition and application thereof” (priority 2016, dated 2020)
“And” between values parts separate entries of the source, which are not always exact repeats. Equal values may be shown once.

Key:
Assay in all cases: Pot-culture stem and leaf treatment, fresh weight inhibition (Gowing method)
Type in all cases: in vivo
Echinochloa crusgalli = test system: Echinochloa crusgalli
From the text: (§1) Echinochloa crusgalli, Setaria viridis, Chenopodium album, Amaranthus retrollexus were collected from corn fields in Qingdao of Shandong Province. Sonchus brachyotus were collected from corn fields in Shenyang of Liaoning Province. Rhizoma Cyperi, Convolvulus arvensis were collected from corn fields in Shangqiu of Henan Province. Cirsium setosum were collected from corn fields in Xiantao of Hubei Province.
(§2) The above weeds were cultivated by a pot culture method. […] Full and uniform weed seeds were selected, soaked in warm water at 25° C. for 6 hours, and germinated in a 28° C. biochemical incubator (darkness). The weed seeds that had just germinated were evenly placed on the surface of the soil and then covered with 0.7 cm soil, and cultured in a controllable sunlight greenhouse after being treated with agents. A certain amount of water was added to the enamel pan regularly to keep the soil moist.
(§3) The culture was carried out in a controllable sunlight greenhouse at 18 to 30° C., in natural light, and relative humidity of 57% to 72%.
(§4) The technical materials were all dissolved in acetone, and diluted with an aqueous solution containing 0.1% emulsifier T-80. The dilution is performed as required.
(§5) 3 pots with 20 weed seeds per pot were treated in one treatment with […] per treatment, that is, a total of 60 weeds were treated in one treatment.
(§6) The agents were used for only once in the experiment. In the stage of weeds with 2 leaves and 1 core, the weeds were thinned out to maintain 15 weeds per pot and 45 weeds for each treatment, then continued to be cultured to 5-leaves and 1-core stage of Echinochloa crusgalli and Setaria viridis, and treated.
(§7) The well-cultured weeds were evenly placed on a platform with an area of 0.5 m^2, and a solution of agents was sprayed on the stems and leaves thereof by the 3WP-2000-type walking spray tower at a dosage of 30 kg/ha and at a spray pressure of 0.3 MPa. After all the solution was sprayed, the valve was closed. After 30 seconds, the door of the spray tower was opened, and the nutritional bowl was taken out. Then the valve was opened, and the spray tube was cleaned by spraying 50 ml of water.
(§8) A pot-culture method was employed. For the cultivation of weeds, please refer to the Section 1.1, and “Pesticide guidelines for laboratory bioactivity tests—herbicides”. As to a method for applying agents, please refer to the section 2.3.2, that is, a method for treating stems and leaves was employed.
(§9) A method for investigating absolute number was employed, wherein whole seedlings of survival weeds were cut off with a blade along the soil surface, and the fresh weight of the weeds was weighed with an analytical balance. For dead weeds, the fresh weight thereof was zero.
(§10) The investigation was performed after 20 days of the treatment for only once.
(§11) An optimum ratio of the two active ingredients was determined by the actual control effect, characteristics of herbicides, and balance of a corresponding formula.
(§12) Wherein, in the formula, X represented the fresh weight inhibition rate of A in a dosage of P, and Y represented the fresh weight inhibition rate of the active ingredient B in a dosage of Q.

Setaria viridis = test system: Setaria viridis
From the text: as §1, §2, §3, §4, §5, §6, §7, §8, §9, §10, §11, §12

Chenopodium album = details: for actual fresh weight inhibition rate (%): Chenopodium album
From the text: as §1
(§13) The above weeds were cultivated by a pot culture method. […] Full and uniform weed seeds were selected, soaked in warm water at 25° C. for 6 hours, and germinated in a 28° C. biochemical incubator (darkness). […] A certain amount of water was added to the enamel pan regularly to keep the soil moist.
as §4, §5, §6, §7, §8, §9, §10, §12

Rhizoma Cyperi = test system: Rhizoma Cyperi
From the text: as §1, §2, §3, §4, §5, §6, §7, §8, §9, §10, §11, §12

Amaranthus retrollexus = details: Amaranthus retroflexus
From the text: as §1, §13, §4, §5, §6, §7, §8, §9, §10, §12

Convolvulus arvensis = test system: Convolvulus arvensis
From the text: as §1, §13, §4, §5, §6, §7, §8, §9, §10, §12

Cirsium setosum = test system: Cirsium setosum
From the text: as §1, §2, §3, §4, §5, §6, §7, §8, §9, §10, §11, §12

Sonchus brachyotus = test system: Sonchus brachyotus
From the text: as §1, §13, §4, §5, §6, §7, §8, §9, §10, §12

[1] = dosage of active ingredient 112.5 g/hm^2
[2] = dosage of active ingredient 225 g/hm^2
[3] = dosage of active ingredient 450 g/hm^2
[4] = dosage of active ingredient 45 g/hm^2
[5] = dosage of active ingredient 90 g/hm^2
[6] = dosage of active ingredient 180 g/hm^2

CCNc1nc(Cl)nc(NC(C)(C)C)n1 [terbuthylazine]
actual fresh weight inhibition rate (Echinochloa crusgalli; dosage 375 g/hm^2): 31.4%
actual fresh weight inhibition rate (Echinochloa crusgalli; dosage 750 g/hm^2): 42.1%
actual fresh weight inhibition rate (Echinochloa crusgalli; dosage 1500 g/hm^2): 51.7%
actual fresh weight inhibition rate (Setaria viridis; dosage 375 g/hm^2): 25.2%
actual fresh weight inhibition rate (Setaria viridis; dosage 750 g/hm^2): 30.6%
actual fresh weight inhibition rate (Setaria viridis; dosage 1500 g/hm^2): 42.3%

CC(C)N1C(=O)c2ccccc2NS1(=O)=O [bentazone]
actual fresh weight inhibition rate (Chenopodium album; dosage 150 g/hm^2): 56.5%
actual fresh weight inhibition rate (Chenopodium album; dosage 300 g/hm^2): 75.9%
actual fresh weight inhibition rate (Chenopodium album; dosage 600 g/hm^2): 94.3%
actual fresh weight inhibition rate (Rhizoma Cyperi; dosage 150 g/hm^2): 65.3%
actual fresh weight inhibition rate (Rhizoma Cyperi; dosage 300 g/hm^2): 83.5%
actual fresh weight inhibition rate (Rhizoma Cyperi; dosage 600 g/hm^2): 92.1%

CC(C)c1nn(C(=O)NC(C)(C)C)c(=O)n1N [amicarbazone]
actual fresh weight inhibition rate (%) (Chenopodium album; [1]): 36.5%
actual fresh weight inhibition rate (%) (Chenopodium album; [2]): 45.9%
actual fresh weight inhibition rate (%) (Chenopodium album; [3]): 64.3%
actual fresh weight inhibition rate (%) (Amaranthus retrollexus; [1]): 21.6%
actual fresh weight inhibition rate (%) (Amaranthus retrollexus; [2]): 31.9%
actual fresh weight inhibition rate (%) (Amaranthus retrollexus; [3]): 41.8%

O=C(Nc1ccc(F)cc1F)c1cccnc1Oc1cccc(C(F)(F)F)c1 [diflufenican]
actual fresh weight inhibition rate (Echinochloa crusgalli; dosage 75 g/hm^2): 7.2%
actual fresh weight inhibition rate (Echinochloa crusgalli; dosage 150 g/hm^2): 9.4%
actual fresh weight inhibition rate (Echinochloa crusgalli; dosage 300 g/hm^2): 10.3%
actual fresh weight inhibition rate (Setaria viridis; dosage 75 g/hm^2): 3.9%
actual fresh weight inhibition rate (Setaria viridis; dosage 150 g/hm^2): 8.3%
actual fresh weight inhibition rate (Setaria viridis; dosage 300 g/hm^2): 10.5%

CSc1nnc(C(C)(C)C)c(=O)n1N [metribuzin]
actual fresh weight inhibition rate (Echinochloa crusgalli; dosage 112.5 g/hm^2): 22.4%
actual fresh weight inhibition rate (Echinochloa crusgalli; dosage 225 g/hm^2): 32.1%
actual fresh weight inhibition rate (Echinochloa crusgalli; dosage 450 g/hm^2): 42.5%
actual fresh weight inhibition rate (Setaria viridis; dosage 112.5 g/hm^2): 21.5%
actual fresh weight inhibition rate (Setaria viridis; dosage 225 g/hm^2): 33.6%
actual fresh weight inhibition rate (Setaria viridis; dosage 450 g/hm^2): 43.5%

Nc1c(Cl)c(F)nc(OCC(=O)O)c1Cl [fluroxypyr]
actual fresh weight inhibition rate (Convolvulus arvensis; dosage 60 g/hm^2): 63.2%
actual fresh weight inhibition rate (Convolvulus arvensis; dosage 120 g/hm^2): 78.2%
actual fresh weight inhibition rate (Convolvulus arvensis; dosage 240 g/hm^2): 92.2%
actual fresh weight inhibition rate (Cirsium setosum; dosage 60 g/hm^2): 56.2%
actual fresh weight inhibition rate (Cirsium setosum; dosage 120 g/hm^2): 79.2%
actual fresh weight inhibition rate (Cirsium setosum; dosage 240 g/hm^2): 95.4%

CCn1ncc(C(=O)c2ccc(S(C)(=O)=O)c(COCC(F)(F)F)c2Cl)c1OC(=O)c1cn(C)nc1C [A1]
actual fresh weight inhibition rate (Sonchus brachyotus; dosage 45 g/hm^2): 32.1%
actual fresh weight inhibition rate (Sonchus brachyotus; dosage 90 g/hm^2): 53.2%
actual fresh weight inhibition rate (Sonchus brachyotus; dosage 180 g/hm^2): 78.8%
actual fresh weight inhibition rate (%) (Chenopodium album; [4]): 19.1%
actual fresh weight inhibition rate (%) (Chenopodium album; [5]): 30.2%
actual fresh weight inhibition rate (%) (Chenopodium album; [6]): 48.7%
actual fresh weight inhibition rate (Chenopodium album; dosage 45 g/hm^2): 19.1%
actual fresh weight inhibition rate (Chenopodium album; dosage 90 g/hm^2): 30.2%
actual fresh weight inhibition rate (Chenopodium album; dosage 180 g/hm^2): 48.7%
actual fresh weight inhibition rate (%) (Amaranthus retrollexus; [4]): 45.7%
actual fresh weight inhibition rate (%) (Amaranthus retrollexus; [5]): 81.6%
actual fresh weight inhibition rate (%) (Amaranthus retrollexus; [6]): 100%
actual fresh weight inhibition rate (Convolvulus arvensis; dosage 45 g/hm^2): 23.2%
actual fresh weight inhibition rate (Convolvulus arvensis; dosage 90 g/hm^2): 38.9%
actual fresh weight inhibition rate (Convolvulus arvensis; dosage 180 g/hm^2): 48.2%
actual fresh weight inhibition rate (Cirsium setosum; dosage 45 g/hm^2): 19.3%
actual fresh weight inhibition rate (Cirsium setosum; dosage 90 g/hm^2): 20.4%
actual fresh weight inhibition rate (Cirsium setosum; dosage 180 g/hm^2): 38.5%
actual fresh weight inhibition rate (Echinochloa crusgalli; dosage 45 g/hm^2): 54.2% and 42.4%
actual fresh weight inhibition rate (Echinochloa crusgalli; dosage 90 g/hm^2): 82.1% and 83.5%
actual fresh weight inhibition rate (Echinochloa crusgalli; dosage 180 g/hm^2): 100%
actual fresh weight inhibition rate (Setaria viridis; dosage 45 g/hm^2): 45.7% and 42.1% and 39.9%
actual fresh weight inhibition rate (Setaria viridis; dosage 90 g/hm^2): 81.6% and 80.3% and 81.2%
actual fresh weight inhibition rate (Setaria viridis; dosage 180 g/hm^2): 100%
actual fresh weight inhibition rate (Rhizoma Cyperi; dosage 45 g/hm^2): 22.8%
actual fresh weight inhibition rate (Rhizoma Cyperi; dosage 90 g/hm^2): 31.1%
actual fresh weight inhibition rate (Rhizoma Cyperi; dosage 180 g/hm^2): 44.2%

CCCCOCN(C(=O)CCl)c1c(CC)cccc1CC [butachlor]
actual fresh weight inhibition rate (Echinochloa crusgalli; dosage 375 g/hm^2): 2.4%
actual fresh weight inhibition rate (Echinochloa crusgalli; dosage 750 g/hm^2): 3.9%
actual fresh weight inhibition rate (Echinochloa crusgalli; dosage 1500 g/hm^2): 5.4%
actual fresh weight inhibition rate (Setaria viridis; dosage 375 g/hm^2): 2.7%
actual fresh weight inhibition rate (Setaria viridis; dosage 750 g/hm^2): 3.8%
actual fresh weight inhibition rate (Setaria viridis; dosage 1500 g/hm^2): 5.9%

CCCCCCCC(=O)Oc1c(Br)cc(C#N)cc1Br [bromoxynil octanoate]
actual fresh weight inhibition rate (Sonchus brachyotus; dosage 112.5 g/hm^2): 56.2%
actual fresh weight inhibition rate (Sonchus brachyotus; dosage 225 g/hm^2): 78.3%
actual fresh weight inhibition rate (Sonchus brachyotus; dosage 450 g/hm^2): 99.2%
actual fresh weight inhibition rate (Convolvulus arvensis; dosage 112.5 g/hm^2): 58.9%
actual fresh weight inhibition rate (Convolvulus arvensis; dosage 225 g/hm^2): 79.2%
actual fresh weight inhibition rate (Convolvulus arvensis; dosage 450 g/hm^2): 98.1%

CCNc1nc(Cl)nc(NC(C)C)n1 [atrazine]
actual fresh weight inhibition rate (Echinochloa crusgalli; dosage 375 g/hm^2): 20.3%
actual fresh weight inhibition rate (Echinochloa crusgalli; dosage 750 g/hm^2): 34.2%
actual fresh weight inhibition rate (Echinochloa crusgalli; dosage 1500 g/hm^2): 45.1%
actual fresh weight inhibition rate (Setaria viridis; dosage 375 g/hm^2): 21.3%
actual fresh weight inhibition rate (Setaria viridis; dosage 750 g/hm^2): 31.4%
actual fresh weight inhibition rate (Setaria viridis; dosage 1500 g/hm^2): 41.4%

COC(=O)c1c(Cl)nn(C)c1S(=O)(=O)NC(=O)Nc1nc(OC)cc(OC)n1 [halosulfuron-methyl]
actual fresh weight inhibition rate (Rhizoma Cyperi; dosage 15 g/hm^2): 67.2%
actual fresh weight inhibition rate (Rhizoma Cyperi; dosage 30 g/hm^2): 89.3%
actual fresh weight inhibition rate (Rhizoma Cyperi; dosage 60 g/hm^2): 100%

CCc1cccc(C)c1N(C(=O)CCl)[C@@H](C)COC [s-metolachlor]
actual fresh weight inhibition rate (Echinochloa crusgalli; dosage 375 g/hm^2): 2.5%
actual fresh weight inhibition rate (Echinochloa crusgalli; dosage 750 g/hm^2): 3.4%
actual fresh weight inhibition rate (Echinochloa crusgalli; dosage 1500 g/hm^2): 5.6%
actual fresh weight inhibition rate (Setaria viridis; dosage 375 g/hm^2): 2.9%
actual fresh weight inhibition rate (Setaria viridis; dosage 750 g/hm^2): 3.9%
actual fresh weight inhibition rate (Setaria viridis; dosage 1500 g/hm^2): 6.2%

COc1cc(OC)nc(NC(=O)NS(=O)(=O)c2ncccc2C(=O)N(C)C)n1 [nicosulfuron]
actual fresh weight inhibition rate (Echinochloa crusgalli; dosage 15 g/hm^2): 33.1%
actual fresh weight inhibition rate (Echinochloa crusgalli; dosage 30 g/hm^2): 74.5%
actual fresh weight inhibition rate (Echinochloa crusgalli; dosage 60 g/hm^2): 100%
actual fresh weight inhibition rate (Setaria viridis; dosage 15 g/hm^2): 45.7%
actual fresh weight inhibition rate (Setaria viridis; dosage 30 g/hm^2): 79.6%
actual fresh weight inhibition rate (Setaria viridis; dosage 60 g/hm^2): 100%

COc1c(Cl)ccc(Cl)c1C(=O)O [dicamba]
actual fresh weight inhibition rate (Chenopodium album; dosage 75 g/hm^2): 66.2%
actual fresh weight inhibition rate (Chenopodium album; dosage 150 g/hm^2): 85.3%
actual fresh weight inhibition rate (Chenopodium album; dosage 300 g/hm^2): 100%
actual fresh weight inhibition rate (Convolvulus arvensis; dosage 75 g/hm^2): 64.4%
actual fresh weight inhibition rate (Convolvulus arvensis; dosage 150 g/hm^2): 78.9%
actual fresh weight inhibition rate (Convolvulus arvensis; dosage 300 g/hm^2): 92.8%
